In US8318792B2, “Therapeutic agent for amyotrophic lateral sclerosis” (Nippon Medical School Foundation, priority 2006, dated 2012):

Legend:
Assay type in all cases: in vivo, mouse
[1] = tested on: G1H-G93A transgenic mice; assay: Exercise tolerance test: footprint test; conditions: 5 mg/kg oral daily from 80th day (before onset), score 0-4
Protocol: (§1) The following five kinds of exercise tolerance tests were conducted every fifth day from the 70th day after birth to evaluate the ability to exercise in the respective exercise tolerance tests. That is, the days for the exercise tolerance tests were every fifth days, such as the 70th day, 75th day, 80th day, 85th day and so on, after birth. The exercise tolerance tests were conducted throughout the survival period, and the post-mortem evaluation was based on the definitions of the following five kinds of exercise tolerance tests.
Both hindlimbs of a mouse are dipped in a black ink bottle, and then the mouse is allowed to walk on white paper. The footprints of the two hindlimbs of the mouse after the walking are analyzed. […] The post-mortem evaluation of the footprint test is defined as score 4.

[2] = tested on: G1H-G93A transgenic mice; assay: Exercise tolerance test: extension reflex test; conditions: for Extension reflex test score: 5 mg/kg oral daily from 80th day (before onset), score 0-2
Protocol: as §1
As for extension reflex, extension of the hindlimbs is normally observed when a mouse is suspended in the air by its tail.
The evaluation of extension reflex test of the mice was performed based on the following criteria: Score 0=Extension reflex is recognized in both of the hindlimbs; Score 1=Extension reflex is recognized only one hindlimb; and Score 2=Extension reflex is not recognized in both of the hindlimbs. The post-mortem evaluation of the extension reflex test is defined as score 2.

[3] = tested on: G1H-G93A transgenic mice; assay: Histopathological study: number of spinal cord anterior horn cells; conditions: end stage, 5 mg/kg oral daily from 80th day after birth (before onset)
Protocol: The mouse supplied to the experiment is anesthetized by intraperitoneal injection of pentobarbital sodium in an amount of 1 mL per kg of the mouse body weight. After confirming that the mouse is completely under anesthesia, laparotomy and thoracotomy are performed, and blood is completely removed from the visceral organs of the whole body by perfusion of physiological saline at 37° C. via the left ventricle and aorta. The complete removal of blood from the visceral organs of the whole body is carried out by confirming complete removal of the blood of the aorta in the thoracic part and abdominal part, mesenteric arteries, liver, kidneys, and small arteries on the surfaces of the stomach, small intestine and large intestine under direct visual inspection. Subsequently, perfusion of 50 mL of physiological saline at 37° C. is performed. Immediately thereafter, the perfusion is performed with a fixative (4% paraformaldehyde supplemented with 0.1 M cacodylate buffer, pH 7.4). The spinal cord is removed and re-fixed with the same fixative for 18 hours. After the fixation of spinal cord tissue, each spinal cord segments is cut out to examine the spinal cord tissue. For the detailed analyses of spinal cord tissues, two segments of the cervical spinal cord (upper and lower cervical segments), three segments of the thoracic spinal cord (upper, middle, and lower thoracic segments), and two segments of lumbar spinal cord (upper and lower lumbar segments) were cut out to provide seven segments in total. Each spinal cord segments are respectively embedded in paraffin to produce paraffin blocks, and then cut into paraffin sections having a thickness of 5 μm using a microtome. The paraffin sections are subjected to hematoxylin and eosin (HE) staining.
For a quantitative analysis, serial 25 paraffin sections having a thickness of 5 μm were produced in series from the respective segment paraffin blocks of the spinal cord, and the 1st section, 7th section, 13th section, 19th section and 25th section were selected and subjected to HE staining. Specifically, paraffin sections were selected such that one paraffin section was taken at a […], and 5 HE preparations were produced from a single spinal cord segments. Therefore, 10 HE preparations from two areas for the entire cervical spinal cord, 15 HE preparations from three areas for the entire thoracic spinal cord, and 10 HE preparations from two areas for the entire lumbar spinal cord, were produced.
In order to calculate the number of motor neurons in the anterior horn, all of the HE stained sections were observed under a light microscope (BX41: Olympus Corp., Tokyo, Japan) equipped with a 3CCD digital color camera system for the microscope (FX380: Olympus Corp., Tokyo, Japan). Subsequently, photographs of the anterior horn region (corresponding to VII, VIII and IX Rexed areas) in the HE stained sections of the respective myelomere tissues of the spinal cord were taken, and the images were analyzed using an image analysis-filing software (FLVFS-LS Ver. 1.12: Olympus Corp., Tokyo, Japan). In regard to the definition of the motor neuron in the anterior horn of spinal cord (spinal cord anterior horn cells), cells in the HE stained sections, which have a nucleus carrying a definite nucleolus and contain a cell body having a diameter of 25 μm or more, were selected as the spinal cord anterior horn cells (Klivenyi P, et al., Nature Med 1999; 5:347-351, Kong J & Xu Z, J Neurosci 1998; 18:3241-3250, and Stephens B, et al., Neuropathol Appl Neurobiol 2001; 27:352-361). Based on this definition, the number of spinal cord anterior horn cells was counted for each of the HE stained sections. The respective numbers of spinal cord anterior horn cells in the cervical spinal cord, thoracic spinal cord and lumbar spinal cord of one mouse was calculated from the total number of spinal cord anterior horn cells in five HE stained sections. […]

[4] = per five HE sections, average±SD

Cc1nc(-c2ccc(OCC(C)C)c(C#N)c2)sc1C(=O)O [compound (c), 2-[3-cyano-4-(2-methylpropoxy)phenyl]-4-methyl-5-thiazolecarboxylic acid]
Footprint test score ([1]; 70th day after birth): 0.0±0.0 | Footprint test score ([1]; 75th day after birth): 0.0±0.0 | Footprint test score ([1]; 80th day after birth): 0.0±0.0 | Footprint test score ([1]; 85th day after birth): 0.0±0.0 | Footprint test score ([1]; 90th day after birth): 0.0±0.0 | Footprint test score ([1]; 95th day after birth): 0.0±0.0 | Footprint test score ([1]; 100th day after birth): 0.0±0.0 | Footprint test score ([1]; 105th day after birth): 0.0±0.0 | Footprint test score ([1]; 110th day after birth): 0.1±0.3 | Footprint test score ([1]; 115th day after birth): 0.7±0.8 | Footprint test score ([1]; 120th day after birth): 1.6±1.0 | Footprint test score ([1]; 125th day after birth): 2.7±0.5 | Footprint test score ([1]; 130th day after birth): 3.3±0.5 | Footprint test score ([1]; 135th day after birth): 3.9±0.3 | Footprint test score ([1]; 140th day after birth): 4.0±0.0 | Extension reflex test score ([2]; 70th day after birth, 5 mg/kg): 0.0±0.0 | Extension reflex test score ([2]; 75th day after birth, 5 mg/kg): 0.0±0.0 | Extension reflex test score ([2]; 80th day after birth, 5 mg/kg): 0.0±0.0 | Extension reflex test score ([2]; 85th day after birth, 5 mg/kg): 0.0±0.0 | Extension reflex test score ([2]; 90th day after birth, 5 mg/kg): 0.0±0.0 | Extension reflex test score ([2]; 95th day after birth, 5 mg/kg): 0.0±0.0 | Extension reflex test score ([2]; 100th day after birth, 5 mg/kg): 0.0±0.0 | Extension reflex test score ([2]; 105th day after birth, 5 mg/kg): 0.0±0.0 | effect in extension reflex test as compared to placebo group ([2]; 105th, 110th, 115th and 120th day, 5 mg/kg oral daily from 80th day after birth, Mann-Whitney's U test): significant effects | Extension reflex test score ([2]; 110th day after birth, 5 mg/kg): 0.1±0.3 | Extension reflex test score ([2]; 115th day after birth, 5 mg/kg): 0.5±0.5 | Extension reflex test score ([2]; 120th day after birth, 5 mg/kg): 1.1±0.6 | Extension reflex test score ([2]; 125th day after birth, 5 mg/kg): 1.7±0.5 | Extension reflex test score ([2]; 130th day after birth): 2.0 ± 0.0 | Extension reflex test score ([2]; 135th day after birth): 2.0 ± 0.0 | Extension reflex test score ([2]; 140th day after birth): 2.0 ± 0.0 | Extension reflex test score ([2]; from the 130th day to 140th day after birth): 2.0±0.0 | difference to placebo group in number of spinal cord anterior horn cells (cervical, thoracic or lumbar segment) ([3]; P>0.05, Mann-Whitney's U test): no significant difference | number of spinal cord anterior horn cells in the cervical segment [3, 4]: 5.2±4.3 | number of spinal cord anterior horn cells in the lumbar segment [3, 4]: 4.1±3.8 | number of spinal cord anterior horn cells in the thoracic segment [3, 4]: 1.6±1.7
